Results as given in patent publication US20260355196A1, “INHIBITORS AND DEGRADERS OF PIP4K PROTEIN” (Larkspur Biosciences, Inc., priority 2023, published 2026).

Target: T1, PIP4K2C (Homo sapiens, UniProt Q8TBX8)
T1 sequence (Q8TBX8 1-421): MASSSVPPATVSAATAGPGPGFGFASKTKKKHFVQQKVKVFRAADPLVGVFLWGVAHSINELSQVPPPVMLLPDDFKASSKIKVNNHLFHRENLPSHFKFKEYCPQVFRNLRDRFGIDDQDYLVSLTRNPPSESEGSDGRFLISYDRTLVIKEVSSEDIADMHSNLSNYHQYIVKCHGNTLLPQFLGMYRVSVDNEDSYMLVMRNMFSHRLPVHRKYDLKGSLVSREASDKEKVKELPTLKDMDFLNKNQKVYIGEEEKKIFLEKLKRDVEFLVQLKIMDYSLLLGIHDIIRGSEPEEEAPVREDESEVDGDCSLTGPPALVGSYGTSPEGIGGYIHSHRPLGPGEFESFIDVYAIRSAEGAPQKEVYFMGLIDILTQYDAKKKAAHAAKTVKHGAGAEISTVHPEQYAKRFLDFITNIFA
Assay: Enzyme Binding Assay (KINOMEscan): active site-directed competition binding to an immobilized ligand
Design: purchased Eurofins DiscoverX, San Diego, CA 87-0007-1094
Conditions: 11-point dose response, duplicate, top concentration 5 micromolar; read-out: Pip4k2c Kd: IC50
Description: Example B-1: Enzyme Binding Assays (KINOMEscan)
PIP4K2C binding constants disclosed herein were determined using the proprietary Human PIP4K2C binding assay (Catalog number 87-0007-1094, Eurofins DiscoverX, San Diego, CA). This assay measures active site-directed competition binding to an immobilized ligand (see https://doi.org/10.1038/nbt1068, herein incorporated by reference in its entirety). Experiments were conducted using an 11-point dose response curve, in duplicate, with a top starting concentration of 5 micromolar; the Levenberg-Marquardt algorithm was used to fit a Hill equation to dose-response data to calculate IC50 values (see Table 5).

| IC50 [nM] | SMILES |
| --- | --- |
| < 500 | CNC(=O)[C@H]1C[C@H](Nc2ncc(Cl)c(-c3cnn(-c4ccc(=O)[nH]c4)c3)n2)C1 [Compound 119, trans-(1r,3r)-3-((5-chloro-4-(1-(6-oxo-1,6-dihydropyridin-3-yl)-1H-pyrazol-4-yl)pyrimidin-2-yl)amino)-N-methylcyclobutane-1-carboxamide] |
| < 500 | CN1CCC(CC(=O)N2CCC(Nc3ncc(Cl)c(-c4cccc(-c5ccccc5)c4)n3)CC2)CC1 [Compound 9, 1-(4-((4-([1,1′-biphenyl]-3-yl)-5-chloropyrimidin-2-yl)amino)piperidin-1-yl)-2-(1-methylpiperidin-4-yl)ethan-1-one] |
| < 500 | CNC(=O)[C@H]1CC[C@H](Nc2ncc(Cl)c(-c3cnn(-c4ccc(=O)[nH]c4)c3)n2)CC1 [Compound 146, trans-(1r,4r)-4-((5-chloro-4-(1-(6-oxo-1,6-dihydropyridin-3-yl)-1H-pyrazol-4-yl)pyrimidin-2-yl)amino)-N-methylcyclohexane-1-carboxamide] |
| < 500 | CC(=O)N1CCC(Nc2ncc(F)c(-c3cccc(C(=O)N4CC(O)C4)c3)n2)CC1 [Compound 214, 1-(4-((5-fluoro-4-(3-(3-hydroxyazetidine-1-carbonyl)phenyl)pyrimidin-2-yl)amino)piperidin-1-yl)ethan-1-one] |
| < 500 | CC(=O)N[C@H]1CC[C@H](Nc2ncc(F)c(-c3ccnc(-n4ccccc4=O)c3)n2)CC1 [Compound 265, trans-N-(4-((5-fluoro-4-(2-oxo-2H-[1,2′-bipyridin]-4′-yl)pyrimidin-2-yl)amino)cyclohexyl)acetamide] |
| < 500 | CC(=O)N1CCC(Nc2ncc(Cl)c(-c3cccc(-c4ccc[nH]c4=O)c3)n2)CC1 [Compound 137, 3-(3-(2-((1-acetylpiperidin-4-yl)amino)-5-chloropyrimidin-4-yl)phenyl)pyridin-2(1H)-one] |
| 1000 to 5000 | CC(=O)N[C@H]1CC[C@H](Nc2ncc(F)c(N3CCOCC3)n2)CC1 [Compound 182, trans-N-(4-((5-fluoro-4-morpholinopyrimidin-2-yl)amino)cyclohexyl)acetamide] |
| < 500 | CC(=O)N1CCCC(Nc2ncc(Cl)c(-c3cccc(-c4ccccc4)c3)n2)C1 (stereo not shown) [Compound 21, 1-(3-((4-([1,1′-biphenyl]-3-yl)-5-chloropyrimidin-2-yl)amino)piperidin-1-yl)ethan-1-one] |
| < 500 | CN1CCC2(CCC(C(=O)N3CCC(Nc4ncc(Cl)c(-c5cccc(-c6ccccc6)c5)n4)CC3)CC2)CC1 [Compound 12, (4-((4-([1,1′-biphenyl]-3-yl)-5-chloropyrimidin-2-yl)amino)piperidin-1-yl)(3-methyl-3-azaspiro[5.5]undecan-9-yl)methanone] |
| < 500 | CNC(=O)[C@H]1CC[C@@H](Nc2ncc(Cl)c(-c3cc(C4CC4)[nH]n3)n2)CC1 [Compound 191, cis-(1s,4s)-4-((5-chloro-4-(5-cyclopropyl-1H-pyrazol-3-yl)pyrimidin-2-yl)amino)-N-methylcyclohexane-1-carboxamide] |
| < 500 | CC(=O)N1CCC(CC(=O)N2CCC(Nc3ncc(Cl)c(-c4cccc(-c5ccccc5)c4)n3)CC2)CC1 [Compound 6, 1-(4-((4-([1,1′-biphenyl]-3-yl)-5-chloropyrimidin-2-yl)amino)piperidin-1-yl)-2-(1-acetylpiperidin-4-yl)ethan-1-one] |
| 500 to 1000 | CNC(=O)[C@H]1CC[C@H](Nc2ncc(Cl)c(-c3ccc(=O)n(C4CC4)c3)n2)CC1 [Compound 106, trans-(1r,4r)-4-((5-chloro-4-(1-cyclopropyl-6-oxo-1,6-dihydropyridin-3-yl)pyrimidin-2-yl)amino)-N-methylcyclohexane-1-carboxamide] |

Continued, molecule first:

| SMILES | IC50 [nM] |
| --- | --- |
| CC(=O)N1CCC[C@H](Nc2ncc(Cl)c(-c3cccc(-c4ccccc4)c3)n2)C1 [Compound 18, (S)-1-(3-((4-([1,1′-biphenyl]-3-yl)-5-chloropyrimidin-2-yl)amino)piperidin-1-yl)ethan-1-one] | < 500 |
| CC(=O)N1CCC(Nc2ncc(F)c(-c3cccc(C(=O)N4CCC(O)(CN)CC4)c3)n2)CC1 [Compound 218, 1-(4-((4-(3-(4-(aminomethyl)-4-hydroxypiperidine-1-carbonyl)phenyl)-5-fluoropyrimidin-2-yl)amino)piperidin-1-yl)ethan-1-one] | < 500 |
| CC(=O)N1CCC(Nc2ncc(Cl)c(N3CCCCC3)n2)CC1 [Compound 24, 1-(4-((5-chloro-4-(piperidin-1-yl)pyrimidin-2-yl)amino)piperidin-1-yl)ethan-1-one] | 1000 to 5000 |
| CC(=O)N1CCC[C@H](Nc2ncc(Cl)c(-c3cc(C4CC4)[nH]n3)n2)C1 [Compound 192, (S)-1-(3-((5-chloro-4-(5-cyclopropyl-1H-pyrazol-3-yl)pyrimidin-2-yl)amino)piperidin-1-yl)ethan-1-one] | < 500 |
| CC(=O)N[C@H]1CC[C@H](Nc2ncc(F)c(-c3cccc(N4CCCOC4=O)c3)n2)CC1 [Compound 225, trans-N-(4-((5-fluoro-4-(3-(2-oxo-1,3-oxazinan-3-yl)phenyl)pyrimidin-2-yl)amino)cyclohexyl)acetamide] | < 500 |
| CNC(=O)[C@H]1CC[C@H](Nc2ncc(Cl)c(-c3cccc(-c4ccc(F)cc4)c3)n2)CC1 [Compound 101, trans-(1r,4r)-4-((5-chloro-4-(4′-fluoro-[1,1′-biphenyl]-3-yl)pyrimidin-2-yl)amino)-N-methylcyclohexane-1-carboxamide] | < 500 |
| CC(=O)N[C@H]1CC[C@H](Nc2ncc(F)c(-c3ccnc(N4CCCC4=O)c3)n2)CC1 [Compound 261, trans-N-(4-((5-fluoro-4-(2-(2-oxopyrrolidin-1-yl)pyridin-4-yl)pyrimidin-2-yl)amino)cyclohexyl)acetamide] | < 500 |
| NC(=O)[C@H]1CC[C@H](Nc2ncc(F)c(-c3cccc(N4CCOCC4=O)n3)n2)CC1 [Compound 271, trans-4-((5-fluoro-4-(6-(3-oxomorpholino)pyridin-2-yl)pyrimidin-2-yl)amino)cyclohexane-1-carboxamide] | < 500 |
| NC(=O)[C@H]1CCC[C@@H](Nc2ncc(F)c(-c3cccc(C4(O)COC4)c3)n2)C1 (relative stereo) [Compound 173, cis-3-((5-fluoro-4-(3-(3-hydroxyoxetan-3-yl)phenyl)pyrimidin-2-yl)amino)cyclohexane-1-carboxamide] | < 500 |
| NC(=O)[C@H]1CC[C@H](Nc2ncc(F)c(-c3cccc(C(=O)N4CC[C@H](O)C4)c3)n2)CC1 [Compound 259, trans-(S)-4-((5-fluoro-4-(3-(3-hydroxypyrrolidine-1-carbonyl)phenyl)pyrimidin-2-yl)amino)cyclohexane-1-carboxamide] | < 500 |
| CC(=O)N1CCC(Nc2ncc(F)c(-c3cccc(C4CCCN(C(C)=O)C4)c3)n2)CC1 (stereo not shown) [Compound 179, 1-(4-((4-(3-(1-acetylpiperidin-3-yl)phenyl)-5-fluoropyrimidin-2-yl)amino)piperidin-1-yl)ethan-1-one] | < 500 |
| CC(=O)N1CCC[C@H](Nc2ncc(Cl)c(-c3ccnc(-c4ccc(F)cc4)c3)n2)C1 [Compound 141, (S)-1-(3-((5-chloro-4-(2-(4-fluorophenyl)pyridin-4-yl)pyrimidin-2-yl)amino)piperidin-1-yl)ethan-1-one] | < 500 |
| CC(=O)N1CCC(Nc2ncc(F)c(-c3cccc(N4CCOC4=O)c3)n2)CC1 [Compound 226, 3-(3-(2-((1-acetylpiperidin-4-yl)amino)-5-fluoropyrimidin-4-yl)phenyl)oxazolidin-2-one] | < 500 |
